Earlier results as cited in US6750064B2, “Methods of screening for possible solid forms” (S.S.C.I. Inc., priority 2000, dated 2004).

Details: two hours after the drug was administered

Row | concentration of novobiocin in dog plasma | SMILES
1 | no drug detectable | CO[C@@H]1[C@@H](OC(N)=O)[C@@H](O)[C@H](Oc2ccc3c(O)c(NC(=O)c4ccc(O)c(CC=C(C)C)c4)c(=O)oc3c2C)OC1(C)C [crystalline novobiocin, novobiocin]
2 | 29300 ng/mL | CO[C@@H]1[C@@H](OC(N)=O)[C@@H](O)[C@H](Oc2ccc3c(O)c(NC(=O)c4ccc(O)c(CC=C(C)C)c4)c(=O)oc3c2C)OC1(C)C [novobiocin amorphous form, novobiocin]
